We go through eight compounds from US11485735B2, “Selective CDK4/6 inhibitor and preparation thereof” (Wuxi Shuangliang Biotechnology Co., Ltd., priority 2019, dated 2022).

One experiment has as its target T1, CDK4/CyclinD3 (Homo sapiens, UniProt P11802).
T1 construct: purchased Wuxi Biortus Biosciences Co. Ltd
Description: In-vitro kinase inhibitory activity, CDK4/CyclinD3 (Caliper EZ Reader II mobility shift). Conditions: CDK4/CyclinD3 20 nM, ATP 2 mM, Peptide 1 μM, 27° C., 180 min; read-out: IC50 (half maximal inhibitory concentration, nM) CDK4. The format is biochemical. The procedure: The final volume for assay was 16 μL, and the reaction temperature was 27° C. CDK4/CyclinD3 was produced by Wuxi Biortus Biosciences Co. Ltd. The concentration of the kinase was determined by the results of the optimization experiment. The kinase was diluted with an assay buffer (50 mM Tris HCl pH 8.0, 0.01% Tween 20, 50 μg/mL BSA, and 5 mM MgCl2) to obtain a corresponding kinase solution (2.4× concentration). The compound was dissolved in dimethyl sulfoxide (DMSO) to reach a concentration of 10 mM. […] 2 μL of the test compound solution was mixed with 5 μL of the kinase solution, and the mixture was incubated for 10 min. 5 μL of the mixed solution of the polypeptide substrate and ATP was then added. The mixture was incubated at 27° C. for 180 min, and then the reaction was terminated by adding 4 μL of EDTA with a concentration of 120 mM to each sample. […] Each assay was conducted in at least two replicates.
(§1) The final concentrations of the reagents in the assay were as follows. […] The reaction mixture was analyzed on a Caliper EZ Reader II by electrophoretic separation of the fluorescent substrate and the phosphorylated product. Data were calculated by using GraphPad Prism version 6.0 and IC50 values were obtained by adjusting the non-linear regression models of the dose response curves.

For another experiment, the target named is T2, CDK6/CyclinD3 (Homo sapiens, UniProt Q00534).
T2 construct: purchased Wuxi Biortus Biosciences Co. Ltd
Description: In-vitro kinase inhibitory activity, CDK6/CyclinD3 (Caliper EZ Reader II mobility shift). The format is biochemical. As to conditions: CDK6/CyclinD3 20 nM, ATP 2 mM, Peptide 1 μM, 27° C., 120 min; read-out: IC50 (half maximal inhibitory concentration, nM) CDK6. The procedure: The final volume for assay was 16 μL, and the reaction temperature was 27° C. […] The compound was dissolved in dimethyl sulfoxide (DMSO) to reach a concentration of 10 mM. […] 2 μL of the test compound solution was mixed with 5 μL of the kinase solution, and the mixture was incubated for 10 min. 5 μL of the mixed solution of the polypeptide substrate and ATP was then added. The mixture was incubated at 27° C. for 120 min, and then the reaction was terminated by adding 4 μL of EDTA with a concentration of 120 mM to each sample. […] Each assay was conducted in at least two replicates.
as §1

Another experiment addresses CDK2 (Homo sapiens, UniProt P24941). In words: In-vitro kinase inhibitory activity, CDK2 (selectivity). The format is biochemical. As to conditions: read-out: IC50 (half maximal inhibitory concentration, nM) CDK2.
In a further experiment the target is CDK9 (Homo sapiens, UniProt P50750). Description: In-vitro kinase inhibitory activity, CDK9 (selectivity). The format is biochemical. Conditions: read-out: IC50 (half maximal inhibitory concentration, nM) CDK9.
Experiment [1] relates to human colon cancer COLO205 cells. In words: Growth inhibition of tumor cells cultured in vitro, CellTiter-Glo, COLO205. Type of experiment: cell-based. Conditions: COLO205, 72 h, CellTiter-Glo. The source says: (§2) Test drugs: Compounds of the present disclosure. Tumor cell strains: human colon cancer COLO205 cells and human breast cancer MCF-7 cells.
(§3) The growth inhibitory effects on human tumor cells COLO205 and MCF-7 cultured in vitro were observed by using a CellTiter-Glo Luminescent Cell Viability Assay Kit (Promega, Cat. No. G7572). Human tumor cells COLO205 and MCF-7 were both purchased from the American Type Culture Collection.
(§4) CellTiter-Glo Luminescent Cell Viability Assay: The previous cell culture medium was discarded, and the tumor cells were rinsed twice with PBS. An appropriate amount of trypsin (VWR, Cat. No. 0458-25G) was added to digest the tumor cells until most of the cells turned round and were detached from the wall. The trypsin digestion was terminated by adding an RPMI-1640 medium (COLO205; Gibco, Cat. No. A10491-01) containing 10% fetal bovine serum (Hyclone, Cat. No. SV30160.03) and MEM medium (MCF-7; Gibco, Cat. No. 10370-021) containing 10% fetal bovine serum and 0.01 mg/mL insulin, and the cells were gently pipetted with a pipette to completely suspend the tumor cells. After cell counting, a tumor cell suspension was prepared using a complete culture medium and the final concentration was 6.7×10^4 cells/mL. 90 μL of the tumor cell suspension was seeded in each well of a 96-well culture plate (6000 cells/well). The plate was then placed in an incubator with 5% CO2 at 37° C. and incubated for 24 h. A test drug was added by using an Agilent Bravo Automated Liquid Handling Platform, and 10 μL of the sample was added in each well. The assay was conducted in triplicate for each group. A compound of the present disclosure was dissolved in DMSO (BioRoYee, Cat. No. AF0231), and then the resulting solution was diluted to 10 μM/L, 3.33 μM/L, 1.11 μM/L, 0.37 μM/L, 0.123 μM/L, 0.041 μM/L, 0.0137 μM/L, 0.0046 μM/L, and 0.0015 μM/L with the culture medium. The concentration of DMSO was lower than 0.1%, and a culture medium containing 0.1% DMSO was added to the well which was set as a vehicle control group. The 96-well plate was placed in an incubator with 5% CO2 at 37° C. and incubated for 72 h. The 96-well plate to be tested was equilibrated at room temperature for 30 min, and 100 μL of Cell Titer-Glo reagent was added to each well. The contents of each well were mixed in an orbital shaker for 2 min to induce cell lysis, and the plate was incubated at room temperature for 10 min to achieve a constant value of fluorescent intensity. Finally, the chemiluminescence intensity was detected by TECAN M1000. Data were processed with Graphpad Prism 6.0 software. The growth curve of the cells was plotted. The cell growth inhibition rate of a drug was calculated, and the half maximal inhibitory concentration (IC50) of the drug was determined.

The test system of experiment [2] is human breast cancer MCF-7 cells. Description: Growth inhibition of tumor cells cultured in vitro, CellTiter-Glo, MCF-7. The format is cell-based. As to conditions: for IC50: MCF-7, 72 h, CellTiter-Glo; for inhibitory effect on human breast cancer MCF-7 cells (in words): summary of the table.
From the text: as §2, §3, §4

Molecules are shown by their SMILES. Counter-ions that a name gives are not always drawn.

Sequence of CDK9 (P50750 whole entry, species assumed): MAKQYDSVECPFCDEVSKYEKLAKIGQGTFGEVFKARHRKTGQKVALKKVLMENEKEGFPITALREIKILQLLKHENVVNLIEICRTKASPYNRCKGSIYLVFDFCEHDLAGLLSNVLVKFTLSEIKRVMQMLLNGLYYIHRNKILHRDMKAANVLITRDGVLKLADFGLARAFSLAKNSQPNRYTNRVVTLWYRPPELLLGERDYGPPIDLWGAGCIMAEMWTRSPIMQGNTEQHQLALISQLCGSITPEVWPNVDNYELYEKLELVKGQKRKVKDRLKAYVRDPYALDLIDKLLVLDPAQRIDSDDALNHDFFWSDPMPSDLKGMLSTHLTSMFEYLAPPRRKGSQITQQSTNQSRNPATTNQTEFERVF
Sequence of CDK9 (O60563 whole entry partner, species assumed): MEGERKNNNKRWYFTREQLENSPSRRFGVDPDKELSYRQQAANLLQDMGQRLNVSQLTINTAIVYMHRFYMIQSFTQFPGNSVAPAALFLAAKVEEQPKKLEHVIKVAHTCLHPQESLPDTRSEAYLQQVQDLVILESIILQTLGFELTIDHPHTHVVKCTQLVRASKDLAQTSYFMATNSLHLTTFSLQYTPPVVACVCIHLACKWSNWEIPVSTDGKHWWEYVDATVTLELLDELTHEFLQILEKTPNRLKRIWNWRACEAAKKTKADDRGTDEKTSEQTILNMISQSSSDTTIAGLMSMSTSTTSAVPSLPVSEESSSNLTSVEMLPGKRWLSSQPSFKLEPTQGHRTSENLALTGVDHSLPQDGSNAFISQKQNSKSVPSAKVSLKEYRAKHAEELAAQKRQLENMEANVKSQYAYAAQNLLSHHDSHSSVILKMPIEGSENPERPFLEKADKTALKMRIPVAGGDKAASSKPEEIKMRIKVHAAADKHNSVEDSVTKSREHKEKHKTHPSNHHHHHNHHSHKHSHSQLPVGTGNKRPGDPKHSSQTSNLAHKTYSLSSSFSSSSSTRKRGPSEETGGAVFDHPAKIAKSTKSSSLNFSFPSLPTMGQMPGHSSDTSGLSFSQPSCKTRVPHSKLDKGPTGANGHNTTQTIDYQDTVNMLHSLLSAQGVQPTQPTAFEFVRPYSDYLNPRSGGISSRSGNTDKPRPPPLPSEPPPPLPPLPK
T2 sequence (Q00534 whole entry, species assumed): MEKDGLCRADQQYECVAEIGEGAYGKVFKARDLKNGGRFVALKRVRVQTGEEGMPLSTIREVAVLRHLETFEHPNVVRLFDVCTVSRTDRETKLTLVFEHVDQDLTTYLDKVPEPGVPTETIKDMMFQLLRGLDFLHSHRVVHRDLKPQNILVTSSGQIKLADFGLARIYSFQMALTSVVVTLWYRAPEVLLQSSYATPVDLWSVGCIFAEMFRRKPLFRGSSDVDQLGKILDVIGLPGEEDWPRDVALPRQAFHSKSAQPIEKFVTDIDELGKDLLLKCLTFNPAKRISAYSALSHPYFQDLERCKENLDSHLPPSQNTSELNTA
T2 sequence (P30281 whole entry partner, species assumed): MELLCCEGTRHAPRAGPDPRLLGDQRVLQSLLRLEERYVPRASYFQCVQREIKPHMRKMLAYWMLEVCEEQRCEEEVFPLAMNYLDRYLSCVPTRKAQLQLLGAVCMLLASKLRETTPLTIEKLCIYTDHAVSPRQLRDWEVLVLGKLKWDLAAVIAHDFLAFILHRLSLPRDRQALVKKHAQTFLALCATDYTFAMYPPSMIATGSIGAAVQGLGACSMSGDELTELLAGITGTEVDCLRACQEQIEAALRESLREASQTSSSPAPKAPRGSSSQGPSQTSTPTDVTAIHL
T1 sequence (P11802 whole entry, species assumed): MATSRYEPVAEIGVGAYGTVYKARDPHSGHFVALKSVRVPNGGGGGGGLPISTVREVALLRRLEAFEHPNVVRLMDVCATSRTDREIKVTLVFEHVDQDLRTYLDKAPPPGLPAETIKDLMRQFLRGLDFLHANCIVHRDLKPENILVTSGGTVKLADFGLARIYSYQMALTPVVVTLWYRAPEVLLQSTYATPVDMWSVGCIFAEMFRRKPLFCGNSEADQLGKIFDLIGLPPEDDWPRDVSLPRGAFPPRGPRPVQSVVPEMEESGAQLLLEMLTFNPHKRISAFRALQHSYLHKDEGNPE
T1 sequence (P30281 whole entry partner, species assumed): as the sequence (P30281 whole entry partner, species assumed) above

With `CC(=O)c1c(C)c2cnc(Nc3ccc(N4CCN(CCN5CCC(CC6CCN(c7ccc8c(c7)CN(C7CCC(=O)NC7=O)C8=O)CC6)CC5)CC4)cn3)nc2n(C2CCCC2)c1=O` (centres unmarked) [Compound 10, 3-(5-(4-((1-(2-(4-(6-((6-acetyl-8-cyclopentyl-5-methyl-7-oxo-7,8-dihydropyrido[2,3-d]pyrimidin-2-yl)amino)pyridin-3-yl)piperazin-1-yl)ethyl)piperidin-4-yl)methyl)piperidin-1-yl)-1-oxoisoindolin-2-yl)piperidine-2,6-dione], the IC50 on CDK4/CyclinD3 was 11.5 nM; on CDK6/CyclinD3 it was 3.21 nM; at CDK2, greater than 10000 nM; on CDK9, 4150 nM.

Regarding `COc1cc(N2CCN(CCN3CCN(c4ccc(Nc5ncc6c(C)c(C(C)=O)c(=O)n(C7CCCC7)c6n5)nc4)CC3)CC2)cc2c1C(=O)N(C1CCC(=O)NC1=O)C2` (centres unmarked) [Compound 16, 3-(5-(4-(2-(4-(6-((6-acetyl-8-cyclopentyl-5-methyl-7-oxo-7,8-dihydropyrido[2,3-d]pyrimidin-2-yl)amino)pyridin-3-yl)piperazin-1-yl)ethyl)piperazin-1-yl)-7-methoxy-1-oxoisoindolin-2-yl)piperidine-2,6-dione], the IC50 is 60.1 nM at CDK4/CyclinD3; 26.4 nM on CDK6/CyclinD3; greater than 10000 nM at CDK9; 66.9 nM in experiment [1] (Homo sapiens, COLO 205, 72 h); greater than 10000 nM in experiment [2] (Homo sapiens, MCF7, 72 h).

For `COc1c(N2CCN(CCN3CCN(c4ccc(Nc5ncc6c(C)c(C(C)=O)c(=O)n(C7CCCC7)c6n5)nc4)CC3)CC2)ccc2c1CN(C1CCC(=O)NC1=O)C2=O` (centres unmarked) [Compound 18, 3-(5-(4-(2-(4-(6-((6-acetyl-8-cyclopentyl-5-methyl-7-oxo-7,8-dihydropyrido[2,3-d]pyrimidin-2-yl)amino)pyridin-3-yl)piperazin-1-yl)ethyl)piperazin-1-yl)-4-methoxy-1-oxoisoindolin-2-yl)piperidine-2,6-dione], the IC50 on CDK4/CyclinD3 was 99.5 nM; on CDK6/CyclinD3, 37.8 nM; on CDK9 it was greater than 10000 nM; in experiment [1] it was 133 nM; in experiment [2] (Homo sapiens, MCF7, 72 h), greater than 10000 nM.

`COc1c(N2CCN(CCN3CCN(c4ccc(Nc5ncc6c(C)c(C(C)=O)c(=O)n(C7CCCC7)c6n5)nc4)CC3)CC2)ccc2c1CN(C1CCC(=O)NC1=O)C2=O` (centres unmarked) [Compound 19, 3-(5-(4-(2-(4-(6-((6-acetyl-8-cyclopentyl-5-methyl-7-oxo-7,8-dihydropyrido[2,3-d]pyrimidin-2-yl)amino)pyridin-3-yl)piperazin-1-yl)ethyl)piperazin-1-yl)-4-methoxy-1-oxoisoindolin-2-yl)piperidine-2,6-dione dihydrochloride]: the IC50 at CDK4/CyclinD3 was 54.8 nM; at CDK6/CyclinD3 it was 20.5 nM; on CDK9, 5610 nM; in experiment [1] (dihydrochloride), 43.2 nM; in experiment [2] it was greater than 10000 nM.

Consider `CC(=O)c1c(C)c2cnc(Nc3ccc(N4CCN(CCN5CCN(c6c(F)cc7c(c6F)CN(C6CCC(=O)NC6=O)C7=O)CC5)CC4)cn3)nc2n(C2CCCC2)c1=O.Cl.Cl` (centres unmarked) [Compound 23, 3-(5-(4-(2-(4-(6-((6-acetyl-8-cyclopentyl-5-methyl-7-oxo-7,8-dihydropyrido[2,3-d]pyrimidin-2-yl)amino)pyridin-3-yl)piperazin-1-yl)ethyl)piperazin-1-yl)-4,6-difluoro-1-oxoisoindolin-2-yl) piperidine-2,6-dione dihydrochloride], for which the IC50 was 48.8 nM at CDK4/CyclinD3, 22.1 nM at CDK6/CyclinD3, 4580 nM at CDK9 and 13.5 nM in experiment [2] (dihydrochloride). In experiment [2], the “inhibitory effect on human breast cancer MCF-7 cells (in words)” value is “relatively good inhibitory effects”.

As for `CC(=O)c1c(C)c2cnc(Nc3ccc(N4CCN(CCN5CCN(c6cc7c(cc6F)C(=O)N(C6CCC(=O)NC6=O)C7)CC5)CC4)cn3)nc2n(C2CCCC2)c1=O.Cl.Cl` (centres unmarked) [Compound 27, 3-(5-(4-(2-(4-(6-((6-acetyl-8-cyclopentyl-5-methyl-7-oxo-7,8-dihydropyrido[2,3-d]pyrimidin-2-yl)amino)pyridin-3-yl)piperazin-1-yl)ethyl)piperazin-1-yl)-6-fluoro-1-oxoisoindolin-2-yl)piperidine-2,6-dione dihydrochloride], the IC50 at CDK4/CyclinD3 is 45.4 nM; on CDK6/CyclinD3, 29.6 nM; on CDK9 it was greater than 10000 nM; in experiment [2] (Homo sapiens, MCF7, 72 h) it was 71.6 nM. In addition, the “inhibitory effect on human breast cancer MCF-7 cells (in words)” value in experiment [2] was “relatively good inhibitory effects”.

In the case of `CN(C)C(=O)c1cc2cnc(Nc3ccc(N4CCN(CCN5CCC(CN6CCN(c7ccc8c(c7)CN([C@H]7CCC(=O)NC7=O)C8=O)CC6)CC5)CC4)cn3)nc2n1C1CCCC1` [Compound 29, (S)-7-cyclopentyl-2-((5-(4-(2-(4-((4-(2-(2,6-dioxopiperidin-3-yl)-1-oxoisoindolin-5-yl)piperazin-1-yl)methyl)piperidin-1-yl)ethyl)piperazin-1-yl)pyridin-2-yl)amino)-N,N-dimethyl-7H-pyrrolo[2,3-d]pyrimidin-6-amide trihydrochloride], the IC50 worked out at 37.8 nM at CDK4/CyclinD3; 42.1 nM on CDK6/CyclinD3; 3650 nM at CDK9; 106 nM in experiment [2] (Homo sapiens, MCF7, 72 h).

As to `CC(=O)c1c(C)c2cnc(Nc3ccc(N4CCN(CCN5CCC(CN6CCN(c7c(F)cc8c(c7F)CN(C7CCC(=O)NC7=O)C8=O)CC6)CC5)CC4)cn3)nc2n(C2CCCC2)c1=O` (centres unmarked) [Compound 34, 3-(5-(4-((1-(2-(4-(6-((6-acetyl-8-cyclopentyl-5-methyl-7-oxo-7,8-dihydropyrido[2,3-d]pyrimidin-2-yl)amino)pyridin-3-yl)piperazin-1-yl)ethyl)piperidin-4-yl)methyl)piperazin-1-yl)-4,6-difluoro-1-oxoisoindolin-2-yl)piperidine-2,6-dione trihydrochloride], the IC50 is 17.6 nM on CDK4/CyclinD3; 9.84 nM on CDK6/CyclinD3; 1560 nM on CDK9; 68.8 nM in experiment [1] (Homo sapiens, COLO 205, 72 h); 442 nM in experiment [2] (Homo sapiens, MCF7, 72 h).
